Laboratory results from patent publication US20110190492A1, “DIAGNOSTIC PROBE FOR CONFORMATION DISEASE” (TOHOKU UNIVERSITY, priority 2005, published 2011).

Assays:
neurofibrillary tangle = assay: Staining test on a brain section of an Alzheimer disease patient (neurofibrillary tangle); format: binding, human (Alzheimer disease patient); conditions: 100 μM compound in 50% ethanol, 10 minutes, fluorescence microscopy
Source text: (§1) (1) Brain specimens at the temporal lobe and the hippocampus of patients to which a definitive diagnosis of Alzheimer disease had been given, and those of normal senile persons were used. The specimens were given by our coworker, Fukushimura Hospital, Longevity Medicine Institute, and we were given their consent of use of the specimens for our study purpose by the bereaved of the patients (Fukushimura Hospital Ethical Review Board Approval No. 20).
(§2) (2) The paraffin-embedded brain tissue was cut into slices having a thickness of 6 μm or 8 μm, and extended and dried on a slide. The paraffin brain section was processed for paraffin removal in xylene twice for 10 minutes, 100% ethanol twice for 5 minutes, 90% ethanol for 5 minutes and running water for 10 minutes in that order.
(§3) (3) For pretreatment prior to the staining treatment with a compound of the invention, the sections were processed for autofluorescence removal with lipofuscin. First, the paraffin-removed sections were dipped in 0.25% KMnO4 solution for 20 minutes. These were washed with PBS, twice for 2 minutes, then dipped in 0.1% K2S2O5/oxalic acid solution for about 5 seconds, and then further washed with PBS, three times for 2 minutes.
(§4) (4) About 150 μl of a 100 μM solution of a compound of the invention dissolved in 50% ethanol was dropwise applied to the section and reacted for 10 minutes. After dipped five times in tap water, the section was entrapped with Fluor Save Reagent (Calbiochem), and analyzed through microscopy with a fluorescence microscope (Nikon, Eclipse 80i). The images were taken with a digital camera (Nikon Dxm 1200F or Photometrics' Cool SNAP ES).

amyloid β protein = biological target: T1, amyloid β protein (Homo sapiens, UniProt P05067); assay: Staining test on a brain section of an Alzheimer disease patient (amyloid β protein); format: binding, human (Alzheimer disease patient); conditions: 100 μM compound in 50% ethanol, 10 minutes, fluorescence microscopy
T1 construct: from tissue; host or cells: paraffin-embedded human brain sections (temporal lobe, hippocampus) of Alzheimer disease patients
T1 sequence (P05067 672-713 limits assumed): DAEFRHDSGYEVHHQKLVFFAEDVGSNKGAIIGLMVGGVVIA
Source text: as §1, §2, §3, §4

[1] = Acute toxicity test, intravenous administration to mice; format: in vivo; conditions: mice observed for 7 days
Method: The compounds of the invention were tested for their acute toxicity through intravenous administration thereof to mice. Four Crj:CD1 male mice formed one test group, and some test groups of those mice were used (the mean body weight of the mice of each group was from 31 to 32 g). A test compound was dissolved in a mixture of 1 N HCl, polyethylene glycol-400 and distilled water, or dissolved in DMSO, and then diluted with distilled water. This was administered to each mouse via its tail vein.

[2] = test system: histidine-requiring Salmonella typhimurium TA100 and TA98 strains; assay: Mutagenicity test (reverse mutation test); format: cell-based; conditions: in the presence of S9mix
Method: In view of their use, it is desirable that the compounds of the invention have no mutagenicity or have little mutagenicity to a level causing no problem. For investigating the gene mutagenesis of the compounds of the invention, herein carried out was a reverse mutation test with histidine-requiring Salmonella typhimurium TA100 and TA98 strains. Two tests were carried out. One is a test for dose determination test; and the other is for mutagenicity.
The test methods and the mutagenicity of the compounds of the invention are mentioned below. In the dose determination test, six doses of 0.160, 0.800, 4.00, 20.0, 100 and 500 μg/plate (common ratio 5) were tried.
As a result of the dose determination test, when the mutagenicity of the test compound was admitted, then the actual test for mutagenicity was carried out, using the dose capable of giving an accurate dose-reaction curve. When no mutagenicity of the test compound was admitted in the dose determination test and when the growth inhibition of the test cells was admitted therein, then the dose to present the growth inhibition was taken as the maximum dose; and when the growth inhibition was not admitted, then a dose of 5000 μg/plate was taken as the maximum dose. With that, the actual test for mutagenicity was carried out on the level of 6 doses (common ratio 2).
First, a test compound was dissolved or suspended in DMSO, then diluted in order to prepare test compound liquids having a varying concentration.
100 μl of a test compound liquid or a negative control (DMSO) solution was put into a sterilized test tube. Then, for the case in the absence of a metabolic activation system (−S9mix), 500 μl of 0.1 mol/liter sodium-phosphate buffer (pH 7.4) was added to it; and for the case in the presence of a metabolic activation system (+S9mix), 500 μl of S9mix was added to it.
Next, 100 μl of the test strain suspension that had been cultivated with shaking at 37° C. for 8 hours was added to it, and preincubated in a shaking thermostat at 37° C. for 20 minutes. After shaken, 2 ml of top agar was added to it, and the contents were mixed.
Next, the mixture was poured onto a minimal glucose agar plate medium (plate) and spread uniformly thereon, then the top agar was solidified, and the plate was transferred into a thermostat and incubated at 37° C. for 48 hours.
Then, the number of the colonies grown through reverse mutation was counted.
For counting it, […]. After area correction and miss-counting correction, the number of the colonies was computed. When the colony analyzer could not be used owing to the deposition of the test compound or the cell growth inhibition, then the number of the colonies was counted with the naked eye.
In case where the number of the colonies through reverse mutation increased two times or more that of the negative control and where the dose dependency or the reproducibility of the increase was admitted, then the tested sample was decided as positive. When the sample was decided as positive, then the relative activity that indicates the relative comparative value of the intensity of the mutagenicity of the test compound was obtained according to the following formula:
Relative Activity={(number of colonies per plate having the concentration)−(number of colonies per negative control plate)}/the value of concentration (mg/plate).

[3] = Brain permeability of [^18F]-labeled compound in mice; format: in vivo, male ICR mice; conditions: 2 minutes after intravenous administration, radioactivity
Method: The partitioning HPLC fraction containing [^18F]THK525, [^18F]THK702, [^18F]THK727 or [^18F]THK763, obtained through labeling production, was diluted with distilled water (about 20 mL), then loaded in Sep-Pak tC18 cartridge (by waters). The cartridge was washed with distilled water (5 to 10 mL), and then the labeled compound was eluted with EtOH (3 to 5 mL). A suitable amount of 5% Polysorbate 80/ethanol solution was added to the EtOH eluate, and the solvent was evaporated away with heating at 80° C. with a rotary evaporator. Thus obtained, a mixture of the labeled compound and Polysorbate 80 was dissolved in physiological saline, thereby preparing a labeled compound-containing physiological saline. Thus prepared, the radiochemical purity of the chemical solution was 95% or more.
[^18F]THK525, [^18F]THK702, [^18F]THK727 or […] to male ICR mice (6 to 7 weeks-age) via their tail vein. From the radioactivity deposition in the brain after 2 and 30 minutes, the brain permeability of the labeled compound was assessed. The radiochemical purity of the labeled compound-containing physiological saline used was at least 95%, and the relative radioactivity thereof was from 18.5 to 148 GBq/μmol; and from 1.11 to 2.22 MBq of the labeled compound was administered to one mouse. Regarding the assessment of the radioactivity deposition, the proportion of the radioactivity per the unit weight of the sample tissue to the overall radioactivity given to the test animal (% injected dose/g of tissue; % ID/g) was taken as the index. For measuring the radioactivity, used was a gamma counter (1480 WIZARD, by Perkin Elmer). The experiment protocol was as follows: A labeled compound was administered to mice via their tail vein. After 2 and 30 minutes, the cervical spine of the mouse was dislocated under ether anesthesia. Immediately, the blood was collected from its heart, and the whole brain (including cerebellum and brainstem) was taken out. The radioactivity and the tissue weight of each sample were measured, and from the data, % ID/g was computed.

binding to amyloid β protein in the brain section of an Alzheimer disease patient (amyloid β protein) | Compound | binding to neurofibrillary tangle in the brain section of an Alzheimer disease patient (neurofibrillary tangle) | Maximum Permissible Dose [1] | relative activity [2] | Brain Permeability of [^18F]-labeled Compound: Brain [3] | Brain Permeability of [^18F]-labeled Compound: Plasma [3]
bound to the amyloid β protein | CN1C=CC(=C/C=C2\C=Nc3ccccc32)C=C1 [THK-185, 3-[2-(1-methyl-1H-pyridin-4-ylidene)-ethylidene]-3H-indole] | bound to the amyloid β protein and the neurofibrillary tangle | – | – | – | –
bound to the amyloid β protein | CN(C)c1ccc(-c2nnc(-c3sc4ccccc4c3Cl)o2)cc1 [THK-258, [4-[5-(3-chloro-benzo[b]thiophen-2-yl)-[1,3,4]oxadiazol-2-yl]-phenyl]-dimethylamine] | bound to the amyloid β protein and the neurofibrillary tangle | – | – | – | –
bound to the amyloid β protein | CN1C=CC(=CC=C2C=CC(=O)C=C2)C=C1 [THK-317, 4-[2-(1-methyl-1H-pyridin-4-ylidene)-ethylidene]-cyclohexa-2,5-dienone] | bound to the amyloid β protein and the neurofibrillary tangle | – | – | – | –
– | FCCOc1ccc2nc(/C=C/c3cnc(N4CCOCC4)s3)oc2c1 [[^18F]THK-525] | – | – | – | 4.7 % ID/g or ml | 2.8 % ID/g or ml
– | OCC(CF)Oc1ccc2nc(/C=C/c3cnc(N4CCOCC4)s3)oc2c1 (centres unmarked) [[^18F]THK-702] | – | – | – | 4.2 % ID/g or ml | 2.3 % ID/g or ml
– | OCC(CF)COc1ccc2nc(/C=C/c3cnc(N4CCOCC4)s3)oc2c1 (centres unmarked) [[^18F]THK-727] | – | – | – | 4.1 % ID/g or ml | 2.9 % ID/g or ml
– | CN(C)c1ncc(/C=C/c2nc3ccc(OC(CO)CF)cc3o2)s1 (centres unmarked) [[^18F]THK-763] | – | – | – | 4.6 % ID/g or ml | 3.7 % ID/g or ml

Compound | binding to amyloid β protein in the brain section of an Alzheimer disease patient (amyloid β protein) | binding to neurofibrillary tangle in the brain section of an Alzheimer disease patient (neurofibrillary tangle) | Maximum Permissible Dose [1] | relative activity [2] | Brain Permeability of [^18F]-labeled Compound: Brain [3] | Brain Permeability of [^18F]-labeled Compound: Plasma [3]
CNc1ncc(/C=C/c2nc3ccc(OC(CO)CF)cc3o2)s1 (centres unmarked) [THK-761, (E)-6-[(1-fluoromethyl-2-hydroxy)ethoxy]-2-[2-[2-methylaminothiazol-5-yl]ethenyl]-benzoxazole] | The white space arrow indicates amyloid β protein | – | ≧10 mg/kg | weak | – | –
CN(C)c1ncc(/C=C/c2nc3ccc(OC(CO)CF)cc3o2)s1 (centres unmarked) [THK-763, (E)-6-[(1-fluoromethyl-2-hydroxy)ethoxy]-2-[2-[2-dimethylamino-thiazol-5-yl]ethenyl]benzoxazole] | The white space arrow indicates amyloid β protein | – | ≧10 mg/kg | weak | – | –
